Experimental findings from patent US5135943A, “1H-imidazole derivative compounds and pharmaceutical compositions containing the same” (priority 1984, dated 1992) are described below.

One data set in a line: in vivo. To be noted: mouse, ip.
For data set [1], the system named is Swiss mice. As to the kind of experiment: Acute toxicity in Swiss mice i.p. Conditions: for LD0: Swiss mice i.p.
Excerpt: (§3) Such signs included convulsions and Straub tail(vertical righting of the tail).
The test system of a further data set is C. albicans ATCC E-10231. As to the kind of experiment: MIC, comparative in vitro testing against Martin compounds. Conditions: Candida albicans, ATCCE10231, Casitone medium, read-out: MIC. It is filed as cell-based. Here is the method: (§1) Minimum Inhibitory Concentrations (MICS) of Sertaconazole were also measured in comparison to four of the compounds described in the Martin Patent, including a compound, referred to herein as Martin Compound 1, which has the same structure as Sertaconazole, expect that the sulfur in the benzothiophene ring is replaced by an oxygen.
(§2) The results of comparative in vitro testing of Sertaconazole and these four Martin compounds are shown in the following Table II against 16 microorganisms. The reading time is the time interval from the time of inoculation to the time of measurement.

The next data set deals with C. albicans 14. The description is as above. It is filed as cell-based. To be noted: Casitone medium. The protocol: as §1, §2
The subject of a further data set is C. pseudotropicalis 21. The data set is described as above. In kind it is cell-based. To be noted: Kluyveromyces marxianus, 21, Sabouraud medium, read-out: MIC. The protocol: as §1, §2
For a further data set, the system named is C. stellatoidea 36232. The data set is described as above. In kind it is cell-based. The protocol: as §1, §2
For another data set, the system named is C. guillermondii. Described as above. It is filed as cell-based. Conditions: read-out: MIC. The protocol: as §1, §2
A further data set relates to C. krusei 24. Described as above. In kind it is cell-based. To be noted: read-out: MIC. The protocol:
as §1, §2

The subject of a further data set is C. albicans 32. The description is as above. It is filed as cell-based. To be noted: Candida albicans, 32, YNB medium, read-out: MIC. Here is the method:
as §1, §2

The test system of a further data set is C. albicans 15. The description is as above. It is filed as cell-based. To be noted: Casitone medium. The protocol: as §1, §2
For a further data set, the system named is C. tropicalis 25. Described as above. It is filed as cell-based. Conditions: YNB medium. Here is the method:
as §1, §2

For a further data set, the system named is C. albicans 31. The description is as above. In kind it is cell-based. Conditions: Candida albicans, 31, YNB medium, read-out: MIC. Here is the method:
as §1, §2

For another data set, the system named is C. parapsilosis 19. The description is as above. It is filed as cell-based. Here is the method: as §1, §2
The next data set relates to 16 microorganisms. As to the kind of experiment: Geometric mean of all MIC measurements, comparative in vitro testing. In kind it is cell-based. Conditions: read-out: Geometric means of MIC. The protocol:
as §1, §2

The test system of data set [2] is Swiss mice. To be noted: mouse, in vivo.
Excerpt: as §3

Values after ≈ are worked out from the molar mass of the structure shown. Where two headings read alike, the source gives them in different places.

Excerpt for in vivo: as §3

As to `Clc1ccc(C(Cn2ccnc2)OCc2coc3c(Cl)cccc23)c(Cl)c1` (centres unmarked) [Martin compound 1, reference compound], in the data set “in vivo”, the LD50 was determined as 518 mg/kg. In addition, the LD0 in the data set on Swiss mice [1] is 285 mg/kg. The “signs of intoxication in the central nervous system (convulsions and Straub tail)” value with Swiss mice [1] (mice) is given as “evident signs of intoxication in the central nervous system”. The minimal inhibitory concentration (MIC) was 2 µg/mL (≈ 4.74 µM) in the data set with C. albicans ATCC E-10231 (reading time 60 h, SZ vs M1); 2 µg/mL (≈ 4.74 µM) against C. albicans 14 (Candida albicans, 14, 60 h, reading time 60 h, SZ vs M1); 0.03 µg/mL (≈ 0.0711 µM) with C. pseudotropicalis 21 (reading time 60 h, SZ vs M1); 0.5 µg/mL (≈ 1.19 µM) in the data set with C. stellatoidea 36232 (Candida albicans, 36232, 60 h, Casitone medium, reading time 60 h, SZ vs M1); 1 µg/mL (≈ 2.37 µM) against C. stellatoidea 36232 (Candida albicans, 36232, 60 h, Sabouraud medium, reading time 60 h, SZ vs M1); 4 µg/mL (≈ 9.49 µM) against C. stellatoidea 36232 (Candida albicans, 36232, 60 h, YNB medium, reading time 60 h, SZ vs M1). In addition, the minimal inhibitory concentration (MIC) was 0.5 µg/mL (≈ 1.19 µM) in the data set with C. guillermondii (60 h, Casitone medium, reading time 60 h, SZ vs M1); 0.5 µg/mL (≈ 1.19 µM) in the data set on C. guillermondii (60 h, YNB medium, reading time 60 h, SZ vs M1); 1 µg/mL (≈ 2.37 µM) in the data set on C. krusei 24 (Pichia kudriavzevii, 24, 60 h, Casitone medium, reading time 60 h, SZ vs M1); 0.25 µg/mL (≈ 0.593 µM) in the data set on C. krusei 24 (Pichia kudriavzevii, 24, 60 h, YNB medium, reading time 60 h, SZ vs M1); 8 µg/mL (≈ 19 µM) in the data set with C. albicans 32 (reading time 60 h, SZ vs M1); 1 µg/mL (≈ 2.37 µM) in the data set with C. albicans 15 (Candida albicans, 15, 60 h, reading time 60 h, SZ vs M1). In addition, the MIC turned out to be 8 µg/mL (≈ 19 µM) against C. tropicalis 25 (Candida tropicalis, 25, 60 h, reading time 60 h, SZ vs M1); 8 µg/mL (≈ 19 µM) with C. albicans 31 (reading time 60 h, SZ vs M1); 1 µg/mL (≈ 2.37 µM) in the data set on C. parapsilosis 19 (19, 60 h, Sabouraud medium, reading time 60 h, SZ vs M1); 0.5 µg/mL (≈ 1.19 µM) against C. parapsilosis 19 (19, 60 h, YNB medium, reading time 60 h, SZ vs M1); 1.09 µg/mL (≈ 2.58 µM) in the data set on 16 microorganisms (60 h, SZ vs M1, reading time 60 h).
`Clc1ccc(C(Cn2ccnc2)OCc2coc3cc(Cl)ccc23)c(Cl)c1` (centres unmarked) [Martin compound 2, reference compound]: the LD50 in “in vivo” was 640 mg/kg. Also, the LD0 in the data set with Swiss mice [1] is given as 235 mg/kg. Besides, the MIC turned out to be 0.5 µg/mL (≈ 1.19 µM) in the data set on C. albicans ATCC E-10231 (reading time 48 h, SZ vs M2); 0.25 µg/mL (≈ 0.593 µM) against C. albicans 14 (Candida albicans, 14, 48 h, reading time 48 h, SZ vs M2); 0.06 µg/mL (≈ 0.142 µM) in the data set on C. pseudotropicalis 21 (reading time 48 h, SZ vs M2); 0.06 µg/mL (≈ 0.142 µM) in the data set on C. stellatoidea 36232 (Candida albicans, 36232, 48 h, Casitone medium, reading time 48 h, SZ vs M2); 0.5 µg/mL (≈ 1.19 µM) in the data set on C. stellatoidea 36232 (Candida albicans, 36232, 48 h, Sabouraud medium, reading time 48 h, SZ vs M2); 1 µg/mL (≈ 2.37 µM) against C. stellatoidea 36232 (Candida albicans, 36232, 48 h, YNB medium, reading time 48 h, SZ vs M2). The MIC in the data set with C. guillermondii (48 h, Casitone medium, reading time 48 h, SZ vs M2) amounted to 0.5 µg/mL (≈ 1.19 µM); with C. guillermondii (48 h, YNB medium, reading time 48 h, SZ vs M2), 0.5 µg/mL (≈ 1.19 µM); in the data set with C. krusei 24 (Pichia kudriavzevii, 24, 48 h, Casitone medium, reading time 48 h, SZ vs M2), 0.05 µg/mL (≈ 0.119 µM); in the data set on C. krusei 24 (Pichia kudriavzevii, 24, 48 h, YNB medium, reading time 48 h, SZ vs M2) it was 0.5 µg/mL (≈ 1.19 µM); with C. albicans 32 (reading time 48 h, SZ vs M2), 4 µg/mL (≈ 9.49 µM); in the data set on C. albicans 15 (Candida albicans, 15, 48 h, reading time 48 h, SZ vs M2) it was 0.06 µg/mL (≈ 0.142 µM). Also, the MIC turned out to be 8 µg/mL (≈ 19 µM) with C. tropicalis 25 (Candida tropicalis, 25, 48 h, reading time 48 h, SZ vs M2); 4 µg/mL (≈ 9.49 µM) in the data set with C. albicans 31 (reading time 48 h, SZ vs M2); 1 µg/mL (≈ 2.37 µM) against C. parapsilosis 19 (19, 48 h, Sabouraud medium, reading time 48 h, SZ vs M2); 1 µg/mL (≈ 2.37 µM) against C. parapsilosis 19 (19, 48 h, YNB medium, reading time 48 h, SZ vs M2); 0.565 µg/mL (≈ 1.34 µM) with 16 microorganisms (48 h, SZ vs M2, reading time 48 h).
As to `Clc1ccc(C(Cn2ccnc2)OCc2cc3cc(Cl)ccc3o2)c(Cl)c1` (centres unmarked) [Martin compound 3, reference compound], the “mice with generalized pulmonary edema and congestion” value in the data set with Swiss mice [2] is 80%. The “signs of intoxication in the central nervous system (convulsions and Straub tail)” value in the data set on Swiss mice [2] is reported as “evident signs of intoxication in the central nervous system”. In the data set on Swiss mice [2] (ip), the LD0 is 423 mg/kg. Further, the LD50 in “in vivo” stood at 640 mg/kg. The MIC in the data set with C. albicans ATCC E-10231 (reading time 48 h, SZ vs M3) is 0.5 µg/mL (≈ 1.19 µM); with C. albicans 14 (Candida albicans, 14, 48 h, reading time 48 h, SZ vs M3), 0.5 µg/mL (≈ 1.19 µM); in the data set with C. pseudotropicalis 21 (reading time 48 h, SZ vs M3) it was 0.03 µg/mL (≈ 0.0711 µM); with C. stellatoidea 36232 (Candida albicans, 36232, 48 h, Casitone medium, reading time 48 h, SZ vs M3), 0.125 µg/mL (≈ 0.296 µM); in the data set with C. stellatoidea 36232 (Candida albicans, 36232, 48 h, Sabouraud medium, reading time 48 h, SZ vs M3), 0.5 µg/mL (≈ 1.19 µM); against C. stellatoidea 36232 (Candida albicans, 36232, 48 h, YNB medium, reading time 48 h, SZ vs M3) it was 4 µg/mL (≈ 9.49 µM). For the same compound, the MIC in the data set on C. guillermondii (48 h, Casitone medium, reading time 48 h, SZ vs M3) is 0.25 µg/mL (≈ 0.593 µM); with C. guillermondii (48 h, YNB medium, reading time 48 h, SZ vs M3) it was 0.25 µg/mL (≈ 0.593 µM); in the data set with C. krusei 24 (Pichia kudriavzevii, 24, 48 h, Casitone medium, reading time 48 h, SZ vs M3) it was 0.125 µg/mL (≈ 0.296 µM); in the data set on C. krusei 24 (Pichia kudriavzevii, 24, 48 h, YNB medium, reading time 48 h, SZ vs M3), 0.25 µg/mL (≈ 0.593 µM); with C. albicans 32 (reading time 48 h, SZ vs M3), 4 µg/mL (≈ 9.49 µM); with C. albicans 15 (Candida albicans, 15, 48 h, reading time 48 h, SZ vs M3), 0.06 µg/mL (≈ 0.142 µM). In addition, the MIC against C. tropicalis 25 (Candida tropicalis, 25, 48 h, reading time 48 h, SZ vs M3) turned out to be 8 µg/mL (≈ 19 µM); in the data set on C. albicans 31 (reading time 48 h, SZ vs M3), 4 µg/mL (≈ 9.49 µM); against C. parapsilosis 19 (19, 48 h, Sabouraud medium, reading time 48 h, SZ vs M3), 0.5 µg/mL (≈ 1.19 µM); in the data set on C. parapsilosis 19 (19, 48 h, YNB medium, reading time 48 h, SZ vs M3), 1 µg/mL (≈ 2.37 µM); in the data set with 16 microorganisms (48 h, SZ vs M3, reading time 48 h), 0.497 µg/mL (≈ 1.18 µM).
In the data set with Swiss mice [2] (ip), `Clc1ccc(C(Cn2ccnc2)OCc2csc3c(Cl)cccc23)c(Cl)c1` (centres unmarked) [Sertaconazole nitrate] came in with an LD0 of 2000 mg/kg and an LD50 of 8000 mg/kg.

Usually LD50 stands for the dose at which mortality reaches 50%. As usually defined, the MIC is the lowest concentration found to suppress growth.
